In ChEMBL document CHEMBL2311426, “Synthesis and antibacterial activity of novel water-soluble nocathiacin analogs” (Bioorg Med Chem Lett, 2013):
≈ marks a conversion by molar mass, not a printed value.

Assays:
[1] = Aqueous solubility of the compound in water containing 5% dextrose at pH 4; type: physicochemical
[2] = system: Staphylococcus aureus; assay: Antibacterial activity against Staphylococcus aureus MB2865 infected in iv dosed mouse assessed as >= log10 cfu kidney burden reduction administered bid after 24 hrs; type: functional
[3] = system: Enterococcus faecalis; assay: Antibacterial activity against Enterococcus faecalis C21560 by turbidity method; type: functional; conditions: read-out: MIC100
[4] = system: Streptococcus pneumoniae; assay: Antibacterial activity against Streptococcus pneumoniae CL2883 by turbidity method; type: functional; conditions: read-out: MIC100
[5] = system: Staphylococcus aureus; assay: Antibacterial activity against Staphylococcus aureus MB2865 by turbidity method; type: functional; conditions: read-out: MIC100

| SMILES | solubility [1] [µg/mL] | ED99 [2] [mg/kg] | MIC [3] [µg/mL] | MIC [4] [µg/mL] | MIC [5] [µg/mL] |
| --- | --- | --- | --- | --- | --- |
| CO/C(C)=C1/NC(=O)[C@H]([C@@H](C)O)NC(=O)c2csc(n2)-c2cc(O)c(-c3nc(CNCCO)cs3)nc2-c2csc(n2)[C@@H]2COC(=O)c3c4c5c(cccc5n3O)COC(=O)[C@@H](O[C@H]3C[C@](C)(O)[C@H](N(C)C)[C@H](C)O3)[C@@H](OC4)[C@H](NC(=O)c3csc1n3)c1nc(cs1)C(=O)N2.O=C(O)C(F)(F)F | > 10000 |  |  |  |  |
| CO/C(C)=C1/NC(=O)[C@H]([C@@H](C)O)NC(=O)c2csc(n2)-c2cc(O)c(-c3nc(CN)cs3)nc2-c2csc(n2)[C@@H]2COC(=O)c3c4c5c(cccc5n3O)COC(=O)[C@@H](O[C@H]3C[C@](C)(O)[C@H](N(C)C)[C@H](C)O3)[C@@H](OC4)[C@H](NC(=O)c3csc1n3)c1nc(cs1)C(=O)N2 |  | >0.5 | 0.06 (≈ 44.3 nM) | 0.00047 (≈ 0.347 nM) | 0.077 (≈ 56.8 nM) |
| CO/C(C)=C1/NC(=O)[C@H]([C@@H](C)O)NC(=O)c2csc(n2)-c2cc(O)c(-c3nc(CNC(=O)CN4CCOCC4)cs3)nc2-c2csc(n2)[C@@H]2COC(=O)c3c4c5c(cccc5n3O)COC(=O)[C@@H](O[C@H]3C[C@](C)(O)[C@H](N(C)C)[C@H](C)O3)[C@@H](OC4)[C@H](NC(=O)c3csc1n3)c1nc(cs1)C(=O)N2.O=C(O)C(F)(F)F | > 10000 |  |  |  |  |
| CN[C@H](CC(C)C)C(=O)N[C@H]1C(=O)N[C@@H](CC(N)=O)C(=O)N[C@H]2C(=O)N[C@H]3C(=O)N[C@H](C(=O)N[C@H](C(=O)O)c4cc(O)cc(O)c4-c4cc3ccc4O)[C@H](O)c3ccc(c(Cl)c3)Oc3cc2cc(c3O[C@@H]2O[C@H](CO)[C@@H](O)[C@H](O)[C@H]2O[C@H]2C[C@](C)(N)[C@H](O)[C@H](C)O2)Oc2ccc(cc2Cl)[C@H]1O [VANCOMYCIN] |  | 0.17 |  |  |  |
| CO/C(C)=C1/NC(=O)[C@H]([C@@H](C)O)NC(=O)c2csc(n2)-c2cc(O)c(-c3nc(CNCc4cncnc4)cs3)nc2-c2csc(n2)[C@@H]2COC(=O)c3c4c5c(cccc5n3O)COC(=O)[C@@H](O[C@H]3C[C@](C)(O)[C@H](N(C)C)[C@H](C)O3)[C@@H](OC4)[C@H](NC(=O)c3csc1n3)c1nc(cs1)C(=O)N2.O=C(O)C(F)(F)F | > 10000 |  |  |  |  |
| CO/C(C)=C1/NC(=O)[C@H]([C@@H](C)O)NC(=O)c2csc(n2)-c2cc(O)c(-c3nc(CN(C)C)cs3)nc2-c2csc(n2)[C@@H]2COC(=O)c3c4c5c(cccc5n3O)COC(=O)[C@@H](O[C@H]3C[C@](C)(O)[C@H](N(C)C)[C@H](C)O3)[C@@H](OC4)[C@H](NC(=O)c3csc1n3)c1nc(cs1)C(=O)N2 |  | >0.5 | 0.0075 (≈ 5.42 nM) | 0.00095 (≈ 0.687 nM) | 0.03 (≈ 21.7 nM) |
| CO/C(C)=C1/NC(=O)[C@H]([C@@H](C)O)NC(=O)c2csc(n2)-c2cc(O)c(-c3nc(CNCc4cncnc4)cs3)nc2-c2csc(n2)[C@@H]2COC(=O)c3c4c5c(cccc5n3O)COC(=O)[C@@H](O[C@H]3C[C@](C)(O)[C@H](N(C)C)[C@H](C)O3)[C@@H](OC4)[C@H](NC(=O)c3csc1n3)c1nc(cs1)C(=O)N2 |  | 0.13 | 0.03 (≈ 20.7 nM) | 0.0007 (≈ 0.484 nM) | 0.0225 (≈ 15.6 nM) |
| CO/C(C)=C1/NC(=O)[C@H]([C@@H](C)O)NC(=O)c2csc(n2)-c2cc(O)c(-c3nc(CNC(=O)CN(C)C)cs3)nc2-c2csc(n2)[C@@H]2COC(=O)c3c4c5c(cccc5n3O)COC(=O)[C@@H](O[C@H]3C[C@](C)(O)[C@H](N(C)C)[C@H](C)O3)[C@@H](OC4)[C@H](NC(=O)c3csc1n3)c1nc(cs1)C(=O)N2.O=C(O)C(F)(F)F | > 10000 |  |  |  |  |
| CO/C(C)=C1/NC(=O)[C@H]([C@@H](C)O)NC(=O)c2csc(n2)-c2cc(O)c(-c3nc(CNC(=O)CN4CCOCC4)cs3)nc2-c2csc(n2)[C@@H]2COC(=O)c3c4c5c(cccc5n3O)COC(=O)[C@@H](O[C@H]3C[C@](C)(O)[C@H](N(C)C)[C@H](C)O3)[C@@H](OC4)[C@H](NC(=O)c3csc1n3)c1nc(cs1)C(=O)N2 |  | >0.5 | 0.015 (≈ 10.1 nM) | 0.00046 (≈ 0.31 nM) | 0.0075 (≈ 5.06 nM) |
| CO/C(C)=C1/NC(=O)[C@H]([C@@H](C)O)NC(=O)c2csc(n2)-c2cc(O)c(-c3nc(CNCC(C)(C)N4CCCCC4)cs3)nc2-c2csc(n2)[C@@H]2COC(=O)c3c4c5c(cccc5n3O)COC(=O)[C@@H](O[C@H]3C[C@](C)(O)[C@H](N(C)C)[C@H](C)O3)[C@@H](OC4)[C@H](NC(=O)c3csc1n3)c1nc(cs1)C(=O)N2.O=C(O)C(F)(F)F | > 10000 |  |  |  |  |
| CO/C(C)=C1/NC(=O)[C@H]([C@@H](C)O)NC(=O)c2csc(n2)-c2cc(O)c(-c3nc(CNC(=O)CCN4CCOCC4)cs3)nc2-c2csc(n2)[C@@H]2COC(=O)c3c4c5c(cccc5n3O)COC(=O)[C@@H](O[C@H]3C[C@](C)(O)[C@H](N(C)C)[C@H](C)O3)[C@@H](OC4)[C@H](NC(=O)c3csc1n3)c1nc(cs1)C(=O)N2.O=C(O)C(F)(F)F | > 10000 |  |  |  |  |
| CO/C(C)=C1/NC(=O)[C@H]([C@@H](C)O)NC(=O)c2csc(n2)-c2cc(O)c(-c3nc(CNC(=O)CN(C)C)cs3)nc2-c2csc(n2)[C@@H]2COC(=O)c3c4c5c(cccc5n3O)COC(=O)[C@@H](O[C@H]3C[C@](C)(O)[C@H](N(C)C)[C@H](C)O3)[C@@H](OC4)[C@H](NC(=O)c3csc1n3)c1nc(cs1)C(=O)N2 |  | >0.5 | 0.25 (≈ 174 nM) | 0.0075 (≈ 5.21 nM) | 0.06 (≈ 41.7 nM) |
| CO/C(C)=C1/NC(=O)[C@H]([C@@H](C)O)NC(=O)c2csc(n2)-c2cc(O)c(-c3nc(CNC(=O)CCN4CCOCC4)cs3)nc2-c2csc(n2)[C@@H]2COC(=O)c3c4c5c(cccc5n3O)COC(=O)[C@@H](O[C@H]3C[C@](C)(O)[C@H](N(C)C)[C@H](C)O3)[C@@H](OC4)[C@H](NC(=O)c3csc1n3)c1nc(cs1)C(=O)N2 |  | >0.5 | 0.12 (≈ 80.2 nM) | 0.0075 (≈ 5.01 nM) | 0.06 (≈ 40.1 nM) |
| CO/C(C)=C1/NC(=O)[C@H]([C@@H](C)O)NC(=O)c2csc(n2)-c2cc(O)c(-c3nc(CN)cs3)nc2-c2csc(n2)[C@@H]2COC(=O)c3c4c5c(cccc5n3O)COC(=O)[C@@H](O[C@H]3C[C@](C)(O)[C@H](N(C)C)[C@H](C)O3)[C@@H](OC4)[C@H](NC(=O)c3csc1n3)c1nc(cs1)C(=O)N2.O=C(O)C(F)(F)F | > 10000 |  |  |  |  |
| CO/C(C)=C1/NC(=O)[C@H]([C@@H](C)O)NC(=O)c2csc(n2)-c2cc(O)c(-c3nc(CNCC[C@H](O)[C@H](O)CO)cs3)nc2-c2csc(n2)[C@@H]2COC(=O)c3c4c5c(cccc5n3O)COC(=O)[C@@H](O[C@H]3C[C@](C)(O)[C@H](N(C)C)[C@H](C)O3)[C@@H](OC4)[C@H](NC(=O)c3csc1n3)c1nc(cs1)C(=O)N2.O=C(O)C(F)(F)F | > 10000 |  |  |  |  |
| CO/C(C)=C1/NC(=O)[C@H]([C@@H](C)O)NC(=O)c2csc(n2)-c2cc(O)c(-c3nc(CNCC(O)CO)cs3)nc2-c2csc(n2)[C@@H]2COC(=O)c3c4c5c(cccc5n3O)COC(=O)[C@@H](O[C@H]3C[C@](C)(O)[C@H](N(C)C)[C@H](C)O3)[C@@H](OC4)[C@H](NC(=O)c3csc1n3)c1nc(cs1)C(=O)N2.O=C(O)C(F)(F)F (stereo not given in full) | > 10000 |  |  |  |  |
| CO/C(C)=C1/NC(=O)[C@H]([C@@H](C)O)NC(=O)c2csc(n2)-c2cc(O)c(-c3nc(CNCCO)cs3)nc2-c2csc(n2)[C@@H]2COC(=O)c3c4c5c(cccc5n3O)COC(=O)[C@@H](O[C@H]3C[C@](C)(O)[C@H](N(C)C)[C@H](C)O3)[C@@H](OC4)[C@H](NC(=O)c3csc1n3)c1nc(cs1)C(=O)N2 |  | 0.32 | 0.06 (≈ 42.9 nM) | 0.00046 (≈ 0.329 nM) | 0.03 (≈ 21.5 nM) |
| CO/C(C)=C1/NC(=O)[C@H]([C@@H](C)O)NC(=O)c2csc(n2)-c2cc(O)c(-c3nc(CN(C)C)cs3)nc2-c2csc(n2)[C@@H]2COC(=O)c3c4c5c(cccc5n3O)COC(=O)[C@@H](O[C@H]3C[C@](C)(O)[C@H](N(C)C)[C@H](C)O3)[C@@H](OC4)[C@H](NC(=O)c3csc1n3)c1nc(cs1)C(=O)N2.O=C(O)C(F)(F)F | > 10000 |  |  |  |  |
| CO/C(C)=C1/NC(=O)[C@H]([C@@H](C)O)NC(=O)c2csc(n2)-c2cc(O)c(-c3nc(CNC(=O)NCCN(C)C)cs3)nc2-c2csc(n2)[C@@H]2COC(=O)c3c4c5c(cccc5n3O)COC(=O)[C@@H](O[C@H]3C[C@](C)(O)[C@H](N(C)C)[C@H](C)O3)[C@@H](OC4)[C@H](NC(=O)c3csc1n3)c1nc(cs1)C(=O)N2.O=C(O)C(F)(F)F | > 10000 |  |  |  |  |
| CO/C(C)=C1/NC(=O)[C@H]([C@@H](C)O)NC(=O)c2csc(n2)-c2cc(O)c(-c3nc(CN(CCO)CCO)cs3)nc2-c2csc(n2)[C@@H]2COC(=O)c3c4c5c(cccc5n3O)COC(=O)[C@@H](O[C@H]3C[C@](C)(O)[C@H](N(C)C)[C@H](C)O3)[C@@H](OC4)[C@H](NC(=O)c3csc1n3)c1nc(cs1)C(=O)N2.O=C(O)C(F)(F)F | > 10000 |  |  |  |  |
| CO/C(C)=C1/NC(=O)[C@H]([C@@H](C)O)NC(=O)c2csc(n2)-c2cc(O)c(-c3nc(CNC(=O)CN4CCN(C)CC4)cs3)nc2-c2csc(n2)[C@@H]2COC(=O)c3c4c5c(cccc5n3O)COC(=O)[C@@H](O[C@H]3C[C@](C)(O)[C@H](N(C)C)[C@H](C)O3)[C@@H](OC4)[C@H](NC(=O)c3csc1n3)c1nc(cs1)C(=O)N2.O=C(O)C(F)(F)F | > 10000 |  |  |  |  |
| CO/C(C)=C1/NC(=O)[C@H]([C@@H](C)O)NC(=O)c2csc(n2)-c2cc(O)c(-c3nc(CNC(=O)C(N)=O)cs3)nc2-c2csc(n2)[C@@H]2COC(=O)c3c4c5c(cccc5n3O)COC(=O)[C@@H](O[C@H]3C[C@](C)(O)[C@H](N(C)C)[C@H](C)O3)[C@@H](OC4)[C@H](NC(=O)c3csc1n3)c1nc(cs1)C(=O)N2 |  |  | 0.0075 (≈ 5.26 nM) | 0.00457 (≈ 3.21 nM) | 0.0075 (≈ 5.26 nM) |
